Data published in patent US10772896B2, “Process for preparing a dry powder formulation comprising an anticholinergic, a corticosteroid and a beta-adrenergic” (CHIESI FARMACEUTICI S.P.A., priority 2015, dated 2020).

How the values were obtained:
[1] = Aerosol performance by Next Generation Impactor (NGI); format: physicochemical
Description: After aerosolization of 3 doses from the inhaler device, the NGI apparatus was disassembled and the amounts of drug deposited in the stages were recovered by washing with a solvent mixture and then quantified by High-Performance Liquid Chromatography (HPLC).

[2] = Uniformity of distribution of the active ingredients in the blend (10 samples, HPLC); format: physicochemical; conditions: dry powder formulation of Example 2; mean value ± RSD
Procedure: The uniformity of distribution of the active ingredients was evaluated by withdrawing 10 samples from different parts of the blend and evaluated by HPLC

[3] = Batch CY (Cyclomix), reference powder formulation of WO 2015/004243
[4] = Batch MF (mechano-fusion), reference powder formulation of WO 2015/004243
[5] = dry powder formulation of Example 2, DPI of WO 2004/012801
[6] = dry powder formulation of Example 2, DPI of WO 2004/012801, 2.0-5.0 micron
[7] = dry powder formulation of Example 2, DPI of WO 2004/012801, particle size <= 5.0 micron
[8] = dry powder formulation of Example 2, multidose DPI of WO 2004/012801
[9] = pMDI HFA solution formulation of WO 2011/076843 (reference Example 4)

| SMILES | Delivered Dose [1, 3] | Extrafine Particle Fraction < 2 μm [1, 3] | Extrafine Particle Mass < 2 μm [1, 3] | Fine Particle Fraction [1, 3] | Fine Particle Mass [1, 3] | MMAD [1, 3] | Mid Fine Particle Fraction [1, 3] | Mid Fine Particle Mass [1, 3] | Delivered Dose [1, 4] | Extrafine Particle Fraction < 2 μm [1, 4] | Extrafine Particle Mass < 2 μm [1, 4] | Fine Particle Fraction [1, 4] | Fine Particle Mass [1, 4] | MMAD [1, 4] | Mid Fine Particle Fraction [1, 4] | Mid Fine Particle Mass [1, 4] | Extrafine Particle Fraction < 1 μm [1, 5] | Extrafine Particle Fraction < 2 μm [1, 5] | Extrafine Particle Mass < 1 μm [1, 5] | Extrafine Particle Mass < 2 μm [1, 5] | further results |
| --- | --- | --- | --- | --- | --- | --- | --- | --- | --- | --- | --- | --- | --- | --- | --- | --- | --- | --- | --- | --- | --- |
| C[N+]1(C)CCC(OC(=O)C(O)(c2ccccc2)C2CCCC2)C1 (stereo not drawn) [GB, Glycopyrronium bromide] | 11.6 µg | 34.9% | 4.0 µg | 57.2% | 6.6 µg | 1.8 μm | 22.3% | 2.6 µg | 11.9 µg | 33.2% | 4.0 µg | 53.8% | 6.4 µg | 1.4 μm | 20.6% | 2.5 µg | 9.8% | 26.4% | 1.1 µg | 2.9 µg | Fine Particle Fraction [1, 5]: 48.1%; MMAD [1, 5]: 1.9 μm; Mid Fine Particle Fraction [1, 6]: 21.6%; Mid Fine Particle Mass [1, 6]: 2.4 µg; Fine Particle Mass [1, 7]: 5.4 µg; Delivered Dose [1, 8]: 11.1 µg; Delivered Dose [1, 9]: 10.6 µg; Extrafine Particle Fraction < 2 μm [1, 9]: 40.2%; Extrafine Particle Mass < 2 μm [1, 9]: 4.2 µg; Fine Particle Fraction [1, 9]: 45.1%; Fine Particle Mass [1, 9]: 4.8 µg; MMAD [1, 9]: 1.0 μm; Mid Fine Particle Fraction [1, 9]: 5.0%; Mid Fine Particle Mass [1, 9]: 0.5 µg |
| CCC(=O)OCC(=O)[C@@]1(OC(=O)CC)[C@@H](C)C[C@H]2[C@@H]3CCC4=CC(=O)C=C[C@]4(C)[C@@]3(Cl)[C@@H](O)C[C@@]21C [BDP, Beclometasone dipropionate] | 90.6 µg | 53.9% | 48.8 µg | 71.2% | 64.5 µg | 1.1 μm | 17.3% | 15.7 µg | 95.7 µg | 52.3% | 50.0 µg | 69.9% | 66.9 µg | 1.1 μm | 17.6% | 16.9 µg | 13.9% | 32.1% | 12.4 µg | 28.5 µg | Uniformity of distribution [2]: 100.5 (±1.8); Fine Particle Fraction [1, 5]: 49.3%; MMAD [1, 5]: 1.6 μm; Mid Fine Particle Fraction [1, 6]: 17.1%; Mid Fine Particle Mass [1, 6]: 15.2 µg; Fine Particle Mass [1, 7]: 43.6 µg; Delivered Dose [1, 8]: 88.5 µg; Delivered Dose [1, 9]: 87.8 µg; Extrafine Particle Fraction < 2 μm [1, 9]: 40.9%; Extrafine Particle Mass < 2 μm [1, 9]: 35.9 µg; Fine Particle Fraction [1, 9]: 46.0%; Fine Particle Mass [1, 9]: 40.4 µg; MMAD [1, 9]: 1.0 μm; Mid Fine Particle Fraction [1, 9]: 5.2%; Mid Fine Particle Mass [1, 9]: 4.5 µg |
